In patent US20190345202A1, “ANDROGEN RECEPTOR ANTISENSE OLIGONUCLEOTIDES” (OliPass Corporation, priority 2016, published 2019):

Experiments:
10-mer complementary DNA = experiment: Tm of duplex between PNA and 10-mer complementary DNA (UV/Vis); assay type: binding; details: 4 μM PNA and 4 μM 10-mer DNA, aqueous buffer pH 7.16, 10 mM sodium phosphate, 100 mM NaCl
Method: The PNA derivatives in Table 1 were evaluated for their binding affinity for 10-mer DNAs complementarily targeting either the N-terminal or C-terminal. The binding affinity was assessed by Tm value for the duplex between PNA and 10-mer complementary DNA. The duplex between PNA derivatives in Table 1 and fully complementary DNAs show Tm values too high to be reliably determined in aqueous buffer solution, since the buffer solution tends to boil off during the Tm measurement.
Tm values were determined on an UV/Vis spectrometer as follows. A mixed solution of 4 μM PNA oligomer and 4 μM complementary 10-mer DNA in 4 mL aqueous buffer (pH 7.16, 10 mM sodium phosphate, 100 mM NaCl) in 15 mL polypropylene falcon tube was incubated at 90° C. for a minute and slowly cooled down to ambient temperature over several minutes. Then the solution was transferred into a 3 mL quartz UV cuvette equipped with an air-tight cap, and subjected to a Tm measurement at 260 nm on an Agilent 8453 UV/Visible spectrophotometer or a similar one as described in the prior art [PCT/KR2009/001256] or with minor modifications. The 10-mer complementary DNAs for Tm measurement were purchased from Bioneer (www.bioneer.com, Dajeon, Republic of Korea) and used without further purification.

full-length AR protein = experiment: Western blot of AR protein in MCF7 cells; assay type: cell-based, human; details: 100 zM to 300 aM, 48 hours
Method: 4 culture dishes were used for 4 negative controls. 48 hours later, cells were washed 2 times with cold PBS, and then subjected to lysis with 200 μL 1× cell lysis buffer (Cat. No. 9803, Cell Signaling Tech) supplemented with 1× protease inhibitor (Cat. No. P8340, Sigma). The lysates were collected in 1.5 ml e-tube. 200 μL of each lysate was mixed with 100 μL 3× sample buffer, and boiled for 5 min at 100 ? . 20 μL of each lysate (12 lysates in total). 4 negative controls and 8 ASO treatment samples) was subjected to electrophoretic separation on a 8% SDS-PAGE gel, and transferred onto a 0.2 μm PVDF membrane. The membrane was probed with anti-AR antibody (Cat. No. 5153, Cell Signaling Tech) and anti-β-actin antibody (Cat. No. sc4778, Santa Cruz). FIG. 10A provides the AR Western blot data obtained therefrom. Multiple (negative) control samples were used to overcome technical artifacts of western blot procedures.

C57BL/6 mice = experiment: Hair growth in C57BL/6 mice upon topical administration (brightness score, hair weight); assay type: in vivo, mouse; details: for average hair weight: hair growth between Day 0 and Day 21
Method: (§1) [Hair Removal and Grouping] In Day 0, 7 week old female C57BL/6 mice were anesthetized with zoletil/rompun, and the hair in the back was cut and removed with a clipper and wax, respectively. Mice with flawless (i.e. spotless) hair removal were selected and randomly assigned into three groups (7 animals per group).
[Topical Administration] The topical solutions of “ASO 1” were prepared by diluting a mother stock solution of “ASO 1” to 0.2 fM or 1 fM in aqueous 30% (v/v) ethanol supplemented with 3% (v/v) glycerin. About 100 μL of 0 (negative control), 0.2, or 1 fM “ASO 1” was topically administered in the back of each animal using a cotton ball in Days 3, 7, 10, and 14.
[Digital Image Scoring for Hair Growth] For scoring the hair growth, the animals were anesthetized and photographed by group as shown in FIG. 11A using a digital camera at a fixed value of exposure time and illumination. The digital image for the area of the hair removal for each animal was selected and digitally scored for the average brightness over the selected area using “ImageJ” program. Lower brightness score is taken as faster hair growth. Brightness scores of individual animals were combined by group, and subjected to statistical analysis by student's t-test. FIG. 11B summarizes the relative brightness scores of the ASO treated groups against the control group. The relative brightness score tended to decrease with days in the treatment groups. […] Thus, “ASO 1” was concluded to promote hair growth upon topical administrations at 1 fM.
[Scoring by Hair Weight] In Day 21, the animals were anesthetized and the hair in the back was cut with a clipper. The hair samples from individual animals were combined by group, and weighed to evaluate the hair growth between Day 0 and Day 21. The average hair weight was 70.5 mg/animal for the control group, 90.8 mg/animal for the 0.2 fM treatment group, and 94.4 mg/animal for the 1 fM treatment group. Thus “ASO 1” was concluded to promote hair growth upon topical administrations at 0.2 fM as well as 1 fM.
as §1, with “(10” for “(7”
[Topical Administration] The topical solutions of “ASO 5” were prepared by diluting a mother stock solution of “ASO 5” to 1, 5, or 25 fM in aqueous 30% (v/v) ethanol supplemented with 3% (v/v) glycerin. About 100 μL of each ASO solution or vehicle (negative control) was topically administered to in the back of an animal using a cotton ball in Days 3, 7, 10, 14 and 21.
Following the shaving in Day 21, the animals received a single topical administration of either vehicle or “ASO 5” at 1 fM, 5 fM, or 25 fM. In Day 53, the hair in the back was collected by shaving with a clipper to determine the total amount of hair growth between Days 21 and 53. The average hair weights of the 1 fM, 5 fM, and 25 fM groups were 1,630%, 1,450%, and 771% of the non-treated group, respectively. Thus “ASO 5” was concluded to promote hair growth upon topical administrations at 1 to 25 fM.
as §1, with “(9” for “(7”
[Topical Administration] The topical solutions of “ASO 10” were prepared by diluting a mother stock solution of “ASO 10” to 1, 5, or 25 fM in aqueous 30% (v/v) ethanol supplemented with 3% (v/v) glycerin. About 100 μL of each ASO solution or vehicle (negative control) was topically administered to in the back of an animal using a cotton ball in Day 2.

androgen receptor = experiment: AR IHC of skin samples after topical administration in mice; assay type: in vivo, mouse; details: topical 0.2 fM or 1 fM, skin sampled Day 24
Text: [AR IHC of Skin Sample] Following the shaving in Day 21, the mice received a single topical administration of either vehicle or “ASO 1” according to the group. In Day 24, the skin of the area with hair removal was sampled for immunohistochemistry (IHC) analysis against androgen receptor. The skin samples were cryo-sectioned and subjected to immunostaining in series with a primary anti-AR antibody (Cat. No. sc-816, Santa Cruz) at 1:100 dilution, with a secondary anti-IgG (Cat No. BA-1100, Vector) at 1:200 dilution, and then with Dylight 594-steptavidin (Cat No. SA-5594, Vector, Calif., USA) at 1:200 dilution for red fluoresence tagging. The IHC images were captured on an Olympus fluorescence microscope for changes in the AR expression level upon topical treatment with “ASO 1”.
[AR Immunohistochemistry of Skin Samples] After the hair cut in Day 27, The animals topically received further either vehicle or “ASO 10” at 1, 5, or 25 fM in Days 27 and 29. Skin samples of the back were collected in Day 30 for immunohistochemical analysis against androgen receptor. The skin samples were subjected to immunostaining against androgen receptor as described in “Example 7”. IHC images were captured on a Zeiss slide scanner. FIG. 14B is a representative set of AR IHC images. […] It would be difficult to clearly state that the AR expression in hair follicles decreased in the treatment groups due to the marked increases in the number of hair follicles in the treatment groups.

human AR mRNA = experiment: qPCR (SYBR Green) of AR mRNA level in MCF7 cells; details: 5 hours

For “Fethoc-C(1O2)TT-A(6)CC-A(6)GG(6)-CA(6)A-NH2 (antisense CTTACCAGGCAA; N-Fethoc, C-terminal amide, chemistry not fully specified) [ASO 13]”, the “Tm Value, 10-mer DNA against C-Terminal” value (10-mer complementary DNA) was 87.0 °C and the “Tm Value, 10-mer DNA against N-Terminal” value (10-mer complementary DNA) was 83.0 °C.
With “Fethoc-GA(5)T-AC(1O2)C-A(5)GG(6)-CAA(5)-G-NH2 (antisense GATACCAGGCAAG; N-Fethoc, C-terminal amide, chemistry not fully specified) [ASO 8]” the “Tm Value, 10-mer DNA against C-Terminal” value (10-mer complementary DNA) was 86.0 °C and the “Tm Value, 10-mer DNA against N-Terminal” value (10-mer complementary DNA) was 87.4 °C.
“Fethoc-TA(5)C-CAG(6)-GC(1O2)A-A(5)GG(6)-C—NH2 (antisense TACCAGGCAAGGC; chemistry not fully specified) [ASO 9]” was tested, and the “Tm Value, 10-mer DNA against C-Terminal” value (10-mer complementary DNA) was 84.5 °C and the “Tm Value, 10-mer DNA against N-Terminal” value (10-mer complementary DNA) was 84.3 °C.
“Fmoc-GA(5)A-GC(1O2)C-A(5)GG-C(1O2)AA(5)-G-NH2 (antisense GAAGCCAGGCAAG; N-Fmoc, C-terminal amide, chemistry not fully specified) [ASO 1]” was tested, and the “AR band intensity vs lysates without ASO treatment” value (full-length AR protein) was “considerably weaker”, the average hair weight (C57BL/6 mice; 0.2 fM topical) was 90.8 mg/animal and the average hair weight (C57BL/6 mice; 1 fM topical) was 94.4 mg/animal. The “brightness score vs non-treated group” value (C57BL/6 mice; Day 13, 1 fM topical in Days 3, 7, 10, 14, lower brightness = faster hair growth) was “significantly lower”, the “AR expression in hair follicles (IHC)” value (androgen receptor) was “markedly inhibited” and the “AR expression in the muscle layer underneath the dermis (IHC)” value (androgen receptor) was “decreased”. For the same substance, the “exon message levels (exons 4-6) relative to negative control” value (human AR mRNA; 1 aM) was ~60 % of the negative control and the “decrease of exon message levels (exons 4-6)” value (human AR mRNA; 100 zM) was “more than 80%”.
